Source: ChEMBL document CHEMBL4130416, “Glycine-replaced derivatives of [Pro3,DLeu9]TL, a temporin L analogue: Evaluation of antimicrobial, cytotoxic and hemolytic activities” (Eur J Med Chem, 2017)
In brackets after ≈: the same amount, converted by molar mass. Activity calls are given as the source filed them. The calls are words filed in the database; no cut-off is given here. Where a SMILES comes first, the peptide text is derived from it. [ ]: non-standard residue; d: D form. Aic = NC1(C(=O)O)Cc2ccccc2C1

Tests used:
Acinetobacter baumannii [1] = assay: Antimicrobial activity against Acinetobacter baumannii ATCC 19606 after 18 to 20 hrs by microbroth dilution method; assay type: functional; conditions: ATCC 19606 = CIP 70.34 = JCM 6841
Escherichia coli [2] = assay: Antimicrobial activity against Escherichia coli D21 after 18 to 20 hrs by microbroth dilution method; assay type: functional
Pseudomonas aeruginosa [3] = assay: Antimicrobial activity against Pseudomonas aeruginosa ATCC 27853 after 18 to 20 hrs by microbroth dilution method; assay type: functional
Pseudomonas syringae = assay: Antimicrobial activity against Pseudomonas syringae pv tabaci NCPPB 1918 after 18 to 20 hrs by microbroth dilution method; assay type: functional, Pseudomonas amygdali pv. tabaci
Priestia megaterium = assay: Antimicrobial activity against Bacillus megaterium Bm11 after 18 to 20 hrs by microbroth dilution method; assay type: functional
Staphylococcus aureus [4] = assay: Antimicrobial activity against Staphylococcus aureus Cowan I after 18 to 20 hrs by microbroth dilution method; assay type: functional
[5] = system: Staphylococcus epidermidis; assay: Antimicrobial activity against Staphylococcus epidermidis ATCC 12228 after 18 to 20 hrs by microbroth dilution method; assay type: functional
Candida albicans [6] = assay: Antimicrobial activity against Candida albicans ATCC 10231 after 18 to 20 hrs by microbroth dilution method; assay type: functional
Pichia kudriavzevii = assay: Antimicrobial activity against Candida krusei ATCC 6258 after 18 to 20 hrs by microbroth dilution method; assay type: functional
HaCaT [7] = assay: Cytotoxicity against human HaCaT cells at 12.5 uM after 24 hrs by MTT assay relative to control; assay type: cell-based
HaCaT [8] = assay: Cytotoxicity against human HaCaT cells at 25 uM after 24 hrs by MTT assay relative to control; assay type: cell-based
HaCaT [9] = assay: Cytotoxicity against human HaCaT cells at 50 uM after 24 hrs by MTT assay relative to control; assay type: cell-based
HaCaT [10] = assay: Cytotoxicity against human HaCaT cells at 1.56 to 6.25 uM after 24 hrs by MTT assay; assay type: cell-based
[11] = system: Staphylococcus epidermidis; assay: Antimicrobial activity against Staphylococcus epidermidis ATCC 12228 assessed as membrane-perturbation measured every minute for 120 mins by SYTOX green fluorescence dye influx assay; assay type: functional, organism-based
Acinetobacter baumannii [12] = assay: Antimicrobial activity against Acinetobacter baumannii ATCC 19606 assessed as induction of membrane-perturbation at MIC measured every minute for 120 mins by SYTOX green fluorescence dye influx assay; assay type: functional, organism-based; conditions: ATCC 19606 = CIP 70.34 = JCM 6841
Candida albicans [13] = assay: Antimicrobial activity against Candida albicans ATCC 10231 assessed as induction of membrane-perturbation at MIC measured every minute for 10 mins by SYTOX green fluorescence dye influx assay; assay type: functional, organism-based
Escherichia coli [14] = assay: Antimicrobial activity against multisensitive Escherichia coli clinical isolate 1 after 18 to 20 hrs by microbroth dilution method; assay type: functional
Escherichia coli [15] = assay: Antimicrobial activity against multisensitive Escherichia coli clinical isolate 2 after 18 to 20 hrs by microbroth dilution method; assay type: functional
Pseudomonas aeruginosa [16] = assay: Antimicrobial activity against multisensitive Pseudomonas aeruginosa after 18 to 20 hrs by microbroth dilution method; assay type: functional
Klebsiella pneumoniae = assay: Antimicrobial activity against multisensitive Klebsiella pneumoniae after 18 to 20 hrs by microbroth dilution method; assay type: functional
Staphylococcus aureus [17] = assay: Antimicrobial activity against multisensitive Staphylococcus aureus after 18 to 20 hrs by microbroth dilution method; assay type: functional
Staphylococcus aureus [18] = assay: Antimicrobial activity against beta-lactamase resistant Staphylococcus aureus after 18 to 20 hrs by microbroth dilution method; assay type: functional
Staphylococcus aureus [19] = assay: Antimicrobial activity against macrolid resistant Staphylococcus aureus after 18 to 20 hrs by microbroth dilution method; assay type: functional
Staphylococcus aureus [20] = assay: Antimicrobial activity against methicillin resistant Staphylococcus aureus clinical isolate 1 after 18 to 20 hrs by microbroth dilution method; assay type: functional
Staphylococcus aureus [21] = assay: Antimicrobial activity against methicillin resistant Staphylococcus aureus clinical isolate 2 after 18 to 20 hrs by microbroth dilution method; assay type: functional
Candida albicans [22] = assay: Antimicrobial activity against Candida albicans clinical isolate 1 after 18 to 20 hrs by microbroth dilution method; assay type: functional
Candida albicans [23] = assay: Antimicrobial activity against Candida albicans clinical isolate 2 after 18 to 20 hrs by microbroth dilution method; assay type: functional
[24] = Hemolytic activity against human erythrocytes at 50 uM after 40 mins relative to control; assay type: ADME, cell-based, Erythrocyte; conditions: read-out: Activity
[25] = Hemolytic activity against human erythrocytes at 25 uM after 40 mins relative to control; assay type: ADME, cell-based, Erythrocyte; conditions: read-out: Activity
[26] = Hemolytic activity against human erythrocytes at 12.5 uM after 40 mins relative to control; assay type: ADME, cell-based, Erythrocyte; conditions: read-out: Activity
[27] = Hemolytic activity against human erythrocytes at 6.25 uM after 40 mins relative to control; assay type: ADME, cell-based, Erythrocyte; conditions: read-out: Activity
[28] = Hemolytic activity against human erythrocytes at 3.125 uM after 40 mins relative to control; assay type: ADME, cell-based, Erythrocyte; conditions: read-out: Activity
[29] = Metabolic stability in 90% human serum assessed as parent compound remaining at […] after 120 mins by RP-UHPLC analysis; assay type: ADME, cell-free; conditions: read-out: Stability

## CC[C@H](C)C(NC(=O)[C@H](CCCNC(=N)N)NC(=O)[C@@H](CCCCN)NC(=O)[C@@H](CC(C)C)NC(=O)[C@H](Cc1ccccc1)NC(=O)[C@H](CCCCN)NC(=O)[C@H](CO)NC(=O)[C@H](Cc1ccccc1)NC(=O)[C@H](Cc1c[nH]c2ccccc12)NC(=O)[C@@H]1CCCN1C(=O)[C@@H](NC(=O)[C@@H](N)Cc1ccccc1)C(C)C)C(=O)N[C@@H](CC(C)C)C(N)=O (single isomer, unassigned)
Acinetobacter baumannii [1]
  MIC: 6.25 µM (≈ 10.5 µg/mL)
Escherichia coli [2]
  MIC: 12.5 µM (≈ 21 µg/mL)
Pseudomonas aeruginosa [3]
  MIC: 12.5 µM (≈ 21 µg/mL)
Pseudomonas syringae
  MIC: 12.5 µM (≈ 21 µg/mL)
Priestia megaterium
  MIC: 3.12 µM (≈ 5.25 µg/mL)
Staphylococcus aureus [4]
  MIC: 12.5 µM (≈ 21 µg/mL)
[5]
  MIC: 3.12 µM (≈ 5.25 µg/mL)
Candida albicans [6]
  MIC: 1.56 µM (≈ 2.62 µg/mL)
Pichia kudriavzevii
  MIC: 1.56 µM (≈ 2.62 µg/mL)
HaCaT [7]
  Activity: 0%
HaCaT [8]
  Activity: 28.22%
HaCaT [9]
  Activity: 87.9%
HaCaT [10]
  Activity: Non-Toxic
[11]
  Activity: Active
Acinetobacter baumannii [12]
  Activity: Active
Candida albicans [13]
  Activity: Active
Escherichia coli [14]
  MIC: 25 µM (≈ 42 µg/mL)
Escherichia coli [15]
  MIC: 25 µM (≈ 42 µg/mL)
Pseudomonas aeruginosa [16]
  MIC: > 50 µM
Klebsiella pneumoniae
  MIC: 50 µM (≈ 84 µg/mL)
Staphylococcus aureus [17]
  MIC: 12.5 µM (≈ 21 µg/mL)
Staphylococcus aureus [18]
  MIC: 25 µM (≈ 42 µg/mL)
Staphylococcus aureus [19]
  MIC: 25 µM (≈ 42 µg/mL)
Staphylococcus aureus [20]
  MIC: 25 µM (≈ 42 µg/mL)
Staphylococcus aureus [21]
  MIC: 12.5 µM (≈ 21 µg/mL)
Candida albicans [22]
  MIC: 12.5 µM (≈ 21 µg/mL)
Candida albicans [23]
  MIC: 12.5 µM (≈ 21 µg/mL)
[24]
  hemolysis at 40 min, 50 µM: 7%
[25]
  hemolysis at 40 min, 25 µM: 5%
[26]
  hemolysis at 40 min, 12.5 µM: 5%
[27]
  hemolysis at 40 min, 6.25 µM: 1%
[28]
  hemolysis at 40 min, 3.125 µM: 0%
[29]
  remaining at 2 h: 40%

## CC[C@H](C)[C@H](NC(=O)[C@H](CCCNC(=N)N)NC(=O)[C@@H]1CCCN1C(=O)[C@@H](CC(C)C)NC(=O)[C@H](Cc1ccccc1)NC(=O)[C@H](CCCCN)NC(=O)[C@H](CO)NC(=O)[C@H](Cc1ccccc1)NC(=O)[C@H](Cc1c[nH]c2ccccc12)NC(=O)[C@@H]1CCCN1C(=O)[C@@H](NC(=O)[C@@H](N)Cc1ccccc1)C(C)C)C(=O)N[C@@H](CC(C)C)C(N)=O (H-FVPWFSKF[dL]PRIL-NH2)
Acinetobacter baumannii [1]
  MIC: 6.25 µM (≈ 10.3 µg/mL)
Escherichia coli [2]
  MIC: 25 µM (≈ 41.2 µg/mL)
Pseudomonas aeruginosa [3]
  MIC: 50 µM (≈ 82.5 µg/mL)
Pseudomonas syringae
  MIC: 12.5 µM (≈ 20.6 µg/mL)
Priestia megaterium
  MIC: 1.56 µM (≈ 2.57 µg/mL)
Staphylococcus aureus [4]
  MIC: 3.12 µM (≈ 5.15 µg/mL)
[5]
  MIC: 3.12 µM (≈ 5.15 µg/mL)
Candida albicans [6]
  MIC: 1.56 µM (≈ 2.57 µg/mL)
Pichia kudriavzevii
  MIC: 1.56 µM (≈ 2.57 µg/mL)
HaCaT [7]
  Activity: 16.15%
HaCaT [8]
  Activity: 77.06%
HaCaT [9]
  Activity: 96.61%
HaCaT [10]
  Activity: Non-Toxic

## CCCC[C@H](NC(=O)[C@@H](CC(C)C)NC(=O)[C@H](Cc1ccccc1)NC(=O)[C@H](CCCCN)NC(=O)[C@H](CO)NC(=O)[C@H](Cc1ccccc1)NC(=O)[C@H](Cc1c[nH]c2ccccc12)NC(=O)[C@@H]1CCCN1C(=O)[C@@H](NC(=O)[C@@H](N)Cc1ccccc1)C(C)C)C(=O)N[C@@H](CCCNC(=N)N)C(=O)NC(C(=O)N[C@@H](CC(C)C)C(N)=O)[C@@H](C)CC (single isomer, unassigned)
Acinetobacter baumannii [1]
  MIC: 6.25 µM (≈ 10.4 µg/mL)
Escherichia coli [2]
  MIC: 25 µM (≈ 41.6 µg/mL)
Pseudomonas aeruginosa [3]
  MIC: 50 µM (≈ 83.3 µg/mL)
Pseudomonas syringae
  MIC: 6.25 µM (≈ 10.4 µg/mL)
Priestia megaterium
  MIC: 3.12 µM (≈ 5.2 µg/mL)
Staphylococcus aureus [4]
  MIC: 3.12 µM (≈ 5.2 µg/mL)
[5]
  MIC: 3.12 µM (≈ 5.2 µg/mL)
Candida albicans [6]
  MIC: 3.12 µM (≈ 5.2 µg/mL)
Pichia kudriavzevii
  MIC: 3.12 µM (≈ 5.2 µg/mL)
HaCaT [7]
  Activity: 12.25%
HaCaT [8]
  Activity: 65.86%
HaCaT [9]
  Activity: 99.76%
HaCaT [10]
  Activity: Non-Toxic

## CC[C@H](C)[C@H](NC(=O)[C@H](CCCNC(=N)N)NC(=O)[C@H]1C[C@@H](O)CN1C(=O)[C@@H](CC(C)C)NC(=O)[C@H](Cc1ccccc1)NC(=O)[C@H](CCCCN)NC(=O)[C@H](CO)NC(=O)[C@H](Cc1ccccc1)NC(=O)[C@H](Cc1c[nH]c2ccccc12)NC(=O)[C@@H]1CCCN1C(=O)[C@@H](NC(=O)[C@@H](N)Cc1ccccc1)C(C)C)C(=O)N[C@@H](CC(C)C)C(N)=O
Acinetobacter baumannii [1]
  MIC: 25 µM (≈ 41.6 µg/mL)
Escherichia coli [2]
  MIC: 25 µM (≈ 41.6 µg/mL)
Pseudomonas aeruginosa [3]
  MIC: > 50 µM
Pseudomonas syringae
  MIC: > 50 µM
Priestia megaterium
  MIC: 3.12 µM (≈ 5.2 µg/mL)
Staphylococcus aureus [4]
  MIC: > 50 µM
[5]
  MIC: 50 µM (≈ 83.3 µg/mL)
Candida albicans [6]
  MIC: 3.12 µM (≈ 5.2 µg/mL)
Pichia kudriavzevii
  MIC: 3.12 µM (≈ 5.2 µg/mL)
HaCaT [7]
  Activity: 0%
HaCaT [8]
  Activity: 0%
HaCaT [9]
  Activity: 0%
HaCaT [10]
  Activity: Non-Toxic

## CC[C@H](C)[C@H](NC(=O)[C@H](CCCNC(=N)N)NC(=O)C1(NC(=O)[C@@H](CC(C)C)NC(=O)[C@H](Cc2ccccc2)NC(=O)[C@H](CCCCN)NC(=O)[C@H](CO)NC(=O)[C@H](Cc2ccccc2)NC(=O)[C@H](Cc2c[nH]c3ccccc23)NC(=O)[C@@H]2CCCN2C(=O)[C@@H](NC(=O)[C@@H](N)Cc2ccccc2)C(C)C)Cc2ccccc2C1)C(=O)N[C@@H](CC(C)C)C(N)=O (H-FVPWFSKF[dL][Aic]RIL-NH2)
Acinetobacter baumannii [1]
  MIC: 3.12 µM (≈ 5.35 µg/mL)
Escherichia coli [2]
  MIC: > 50 µM
Pseudomonas aeruginosa [3]
  MIC: > 50 µM
Pseudomonas syringae
  MIC: 1.56 µM (≈ 2.67 µg/mL)
Priestia megaterium
  MIC: 1.56 µM (≈ 2.67 µg/mL)
Staphylococcus aureus [4]
  MIC: 1.56 µM (≈ 2.67 µg/mL)
[5]
  MIC: 1.56 µM (≈ 2.67 µg/mL)
Candida albicans [6]
  MIC: 6.25 µM (≈ 10.7 µg/mL)
Pichia kudriavzevii
  MIC: 6.25 µM (≈ 10.7 µg/mL)
HaCaT [7]
  Activity: 45.54%
HaCaT [8]
  Activity: 88.72%
HaCaT [9]
  Activity: 92.84%
HaCaT [10]
  Activity: Non-Toxic
